In PubChem BioAssay (NCI):
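1) Cells in 96-well plates. 2) Compound, 48 h, 5 concentrations. 3) Linear interpolation between surrounding doses. 4) Unreached endpoint = highest concentration. GI50 marks 50% less growth. TGI: total growth inhibition.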

Tests used:
Assay in all cases: NCI tumour cell line growth inhibition, 48 h
[1] = system: COLO 205 colon
[2] = system: MOLT-4 leukemia
[3] = system: CAKI-1 renal
[4] = system: RPMI-8226 leukemia
[5] = system: NCI-H522 lung
[6] = system: OVCAR-3 ovarian
[7] = system: U251 CNS
[8] = system: LOX IMVI melanoma
[9] = system: 786-0 renal
[10] = system: KM12 colon

Structure (SMILES) | GI50 [1] | TGI [1] | GI50 [2] | TGI [2] | GI50 [3] | TGI [3] | GI50 [4] | TGI [4] | GI50 [5] | TGI [5] | GI50 [6] | TGI [6] | GI50 [7] | TGI [7] | GI50 [8] | TGI [8] | GI50 [9] | TGI [9] | GI50 [10] | TGI [10]
OCc1ccc(N2CCOCC2)cc1Cl | 25 µM | > 68.1 µM | > 100 µM | > 100 µM | > 100 µM | > 100 µM | > 84.4 µM | > 100 µM | > 100 µM | > 100 µM | 35.2 µM | > 92 µM | > 72.2 µM | > 100 µM | > 100 µM | > 100 µM | > 100 µM | > 100 µM | > 100 µM | > 100 µM
O=C1/C(=C/c2ccc([N+](=O)[O-])cc2)COc2ccc(O)cc21 | 10.7 µM | 55.7 µM | 3.11 µM | 37.6 µM | 3.7 µM | 19.3 µM | 0.326 µM | 1.65 µM | 2.05 µM | 6.05 µM | 3.26 µM | 11.8 µM | 1.99 µM | 4.13 µM | 1.68 µM | 3.23 µM | 3.05 µM | 11.7 µM | 2.15 µM | 5.25 µM
C=C1C2Oc3ccccc3C1N(c1ccccc1)O2 (stereo not given) | – | > 100 µM | – | > 100 µM | – | > 100 µM | – | > 100 µM | – | 80.8 µM | – | > 100 µM | – | 90 µM | – | 36.2 µM | – | > 100 µM | – | 42.2 µM
CCCCCCCCCCCCCCCCCCOCC(COCCOCC[N+]1(CCCCCC(=O)[O-])CCCC1)Oc1ncccn1 (stereo not given) | – | 3.77 µM | – | 20.7 µM | – | 22.7 µM | – | 8.96 µM | – | 7.68 µM | – | 20.4 µM | – | 8.5 µM | – | 13 µM | – | 22.2 µM | – | 17.7 µM
COc1ccc(-c2cnoc2-c2cc(OC)c3c(c2)OCCO3)cc1 | 0.0231 µM | 0.0806 µM | 0.0638 µM | > 100 µM | 0.0409 µM | > 100 µM | 0.0477 µM | 33 µM | < 0.0141 µM | 0.0842 µM | < 0.0172 µM | 1.55 µM | 0.0521 µM | > 100 µM | 0.0632 µM | 22.5 µM | 0.0629 µM | > 56.5 µM | < 0.0162 µM | 16 µM
c1ccc2[nH]c(CNc3ccc(C4C[Se]N=N4)cc3)nc2c1 (stereo not given) | – | > 100 µM | – | 40.5 µM | – | > 100 µM | – | 81.3 µM | – | > 100 µM | – | 96.9 µM | – | > 100 µM | – | > 100 µM | – | > 100 µM | – | > 100 µM
Cc1c(C)c(CC(=O)N2CC2)c(C)c(C)c1CC(=O)N1CC1 | – | 29.5 µM | – | 2.91 µM | – | 32.4 µM | – | 55.5 µM | – | 27.1 µM | – | 51.4 µM | – | > 67.3 µM | – | > 49 µM | – | > 65.9 µM | – | 40.3 µM
O=C1c2cccc3cccc(c23)C(=O)N1O | – | > 100 µM | – | > 100 µM | – | > 100 µM | – | > 100 µM | – | > 100 µM | – | > 100 µM | – | > 100 µM | – | > 100 µM | – | > 100 µM | – | > 100 µM
O=C(O)c1ccccc1C(=O)c1ccc2c(c1)Cc1ccccc1-2 | – | > 100 µM | – | > 100 µM | – | > 100 µM | – | > 100 µM | – | > 100 µM | – | > 100 µM | – | > 100 µM | – | > 100 µM | – | > 100 µM | – | > 100 µM
COc1ccc(C2=C(N3CCc4ccccc43)C(=O)NC2=O)cc1 | > 25 µM | > 25 µM | 25 µM | > 25 µM | > 25 µM | > 25 µM | > 22.9 µM | > 25 µM | > 17.9 µM | > 25 µM | > 25 µM | > 25 µM | > 25 µM | > 25 µM | > 25 µM | > 25 µM | > 25 µM | > 25 µM | > 25 µM | > 25 µM
Clc1ccc2c(c1)N(c1ncnc3ccc(-c4cnc5[nH]ncc5c4)cc13)CC2 | 0.695 µM | > 100 µM | 0.465 µM | > 100 µM | 0.316 µM | > 100 µM | 0.759 µM | > 100 µM | 2.23 µM | > 100 µM | 0.471 µM | > 100 µM | 9.79 µM | > 100 µM | 0.338 µM | > 100 µM | 0.689 µM | > 100 µM | 3.53 µM | > 100 µM
COc1ccc(Nc2nccc(N3CCN(c4c5ccc(Cl)cc5nc5ccc(OC)cc45)CC3)n2)cc1 | 16.9 µM | > 100 µM | 3.05 µM | > 100 µM | 8.93 µM | > 100 µM | 3.73 µM | 28.1 µM | 1.78 µM | 5.09 µM | 11.1 µM | > 100 µM | 4.36 µM | > 100 µM | 6.11 µM | > 100 µM | 5.4 µM | 47.2 µM | 6.96 µM | > 100 µM
COc1ccc(C(=O)c2nc3ccccc3n2CC(=O)c2ccc(Cl)cc2)cc1 | 11.3 µM | > 83.7 µM | 2.09 µM | > 100 µM | 53.6 µM | > 100 µM | 1.71 µM | > 23.9 µM | 3.95 µM | > 100 µM | 2.55 µM | > 20.4 µM | 3.41 µM | > 100 µM | 6.2 µM | > 100 µM | 3.88 µM | > 100 µM | 1.59 µM | > 100 µM
C/C1=C\CC[C@@](C)(O)[C@@H]2C[C@H](CC/C(C)=C/CC1)C1(CC1)C(=O)O2 | 15.6 µM | 36.4 µM | 15.5 µM | 38.2 µM | 22.2 µM | 50.2 µM | 20.3 µM | 46.4 µM | 35.1 µM | > 100 µM | 22 µM | 47.4 µM | 23 µM | 57.1 µM | 18.8 µM | 34.5 µM | 44.6 µM | > 100 µM | 25.4 µM | 68.5 µM
C=C1C(=O)C23C(O)C1CC[C@H]2C12CCCC(C)(COC(C)=O)[C@H]1[C@H](O)[C@]3(O)OC2 (stereo not given in full) | – | 4.14 µM | – | 0.72 µM | – | 3.44 µM | – | 1.76 µM | – | 0.902 µM | – | 2.99 µM | – | 5.4 µM | – | 3.17 µM | – | 2.24 µM | – | 6.07 µM
